Assay results taken from ChEMBL document CHEMBL5678809, “Preclinical characterization of GLPG0634, a selective inhibitor of JAK1, for the treatment of inflammatory diseases” (J Immunol, 2013).
The source made the active and inactive calls. The rule behind the calls is not given here.

Columns and labels:
[1] = biological target: Serine/threonine-protein kinase PAK 4 (Homo sapiens) (UniProt O96013); assay: Inhibition of PAK4 (unknown origin) at 1 uM relative to control
[2] = biological target: Serine/threonine-protein kinase PLK2 (Homo sapiens) (UniProt Q9NYY3); assay: Inhibition of Snk (unknown origin) at 1 uM relative to control
Homo sapiens [3] = species: Homo sapiens; assay: Inhibition of PhK2 (unknown origin) at 1 uM relative to control
[4] = biological target: Mitogen-activated protein kinase 13 (Homo sapiens) (UniProt O15264); assay: Inhibition of SAPK4 (unknown origin) at 1 uM relative to control
[5] = biological target: Serine/threonine-protein kinase haspin (Homo sapiens) (UniProt Q8TF76); assay: Inhibition of Haspin (unknown origin) at 1 uM relative to control
Sequence of Serine/threonine-protein kinase haspin (Homo sapiens) (Q8TF76 whole entry): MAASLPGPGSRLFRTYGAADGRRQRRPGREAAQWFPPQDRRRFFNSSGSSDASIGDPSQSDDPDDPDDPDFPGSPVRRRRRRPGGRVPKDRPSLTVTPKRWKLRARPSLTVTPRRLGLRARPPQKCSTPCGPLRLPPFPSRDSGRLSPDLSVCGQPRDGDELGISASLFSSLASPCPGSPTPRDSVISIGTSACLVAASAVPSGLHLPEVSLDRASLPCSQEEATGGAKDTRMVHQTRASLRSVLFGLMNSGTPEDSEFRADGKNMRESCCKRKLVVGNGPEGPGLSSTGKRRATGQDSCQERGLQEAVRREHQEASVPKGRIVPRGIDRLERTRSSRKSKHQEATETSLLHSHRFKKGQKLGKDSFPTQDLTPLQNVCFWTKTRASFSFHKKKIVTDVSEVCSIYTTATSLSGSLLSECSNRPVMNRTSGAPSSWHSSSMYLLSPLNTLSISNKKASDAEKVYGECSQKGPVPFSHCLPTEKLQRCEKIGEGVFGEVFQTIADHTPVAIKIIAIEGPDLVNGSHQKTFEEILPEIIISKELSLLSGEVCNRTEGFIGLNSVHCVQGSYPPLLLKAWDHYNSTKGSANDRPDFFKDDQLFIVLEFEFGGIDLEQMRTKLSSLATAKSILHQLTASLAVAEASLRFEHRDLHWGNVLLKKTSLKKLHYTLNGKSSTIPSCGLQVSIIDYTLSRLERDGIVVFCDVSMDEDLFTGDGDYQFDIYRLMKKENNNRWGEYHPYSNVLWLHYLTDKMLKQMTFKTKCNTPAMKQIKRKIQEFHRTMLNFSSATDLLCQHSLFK

[6] = biological target: MAP kinase-interacting serine/threonine-protein kinase 2 (Homo sapiens, UniProt Q9HBH9); assay: Inhibition of MNK2 (unknown origin) at 1 uM relative to control
[7] = Cmax in CD-1 mouse at 5 mg/kg, po measured upto 24 hrs by LC-MS analysis; assay type: ADME, organism-based; conditions: in vivo
BaF3 = assay: Antiproliferative activity against mouse BaF3 cells assessed as IL-3-induced inhibition of cell growth incubated for 40 hrs; assay type: functional, cell-based; conditions: BaF3, 40 h
[8] = biological target: Hepatocyte growth factor receptor (Homo sapiens) (UniProt P08581); assay: Inhibition of Met (unknown origin) at 1 uM relative to control
Sequence of Hepatocyte growth factor receptor (Homo sapiens) (P08581 whole entry): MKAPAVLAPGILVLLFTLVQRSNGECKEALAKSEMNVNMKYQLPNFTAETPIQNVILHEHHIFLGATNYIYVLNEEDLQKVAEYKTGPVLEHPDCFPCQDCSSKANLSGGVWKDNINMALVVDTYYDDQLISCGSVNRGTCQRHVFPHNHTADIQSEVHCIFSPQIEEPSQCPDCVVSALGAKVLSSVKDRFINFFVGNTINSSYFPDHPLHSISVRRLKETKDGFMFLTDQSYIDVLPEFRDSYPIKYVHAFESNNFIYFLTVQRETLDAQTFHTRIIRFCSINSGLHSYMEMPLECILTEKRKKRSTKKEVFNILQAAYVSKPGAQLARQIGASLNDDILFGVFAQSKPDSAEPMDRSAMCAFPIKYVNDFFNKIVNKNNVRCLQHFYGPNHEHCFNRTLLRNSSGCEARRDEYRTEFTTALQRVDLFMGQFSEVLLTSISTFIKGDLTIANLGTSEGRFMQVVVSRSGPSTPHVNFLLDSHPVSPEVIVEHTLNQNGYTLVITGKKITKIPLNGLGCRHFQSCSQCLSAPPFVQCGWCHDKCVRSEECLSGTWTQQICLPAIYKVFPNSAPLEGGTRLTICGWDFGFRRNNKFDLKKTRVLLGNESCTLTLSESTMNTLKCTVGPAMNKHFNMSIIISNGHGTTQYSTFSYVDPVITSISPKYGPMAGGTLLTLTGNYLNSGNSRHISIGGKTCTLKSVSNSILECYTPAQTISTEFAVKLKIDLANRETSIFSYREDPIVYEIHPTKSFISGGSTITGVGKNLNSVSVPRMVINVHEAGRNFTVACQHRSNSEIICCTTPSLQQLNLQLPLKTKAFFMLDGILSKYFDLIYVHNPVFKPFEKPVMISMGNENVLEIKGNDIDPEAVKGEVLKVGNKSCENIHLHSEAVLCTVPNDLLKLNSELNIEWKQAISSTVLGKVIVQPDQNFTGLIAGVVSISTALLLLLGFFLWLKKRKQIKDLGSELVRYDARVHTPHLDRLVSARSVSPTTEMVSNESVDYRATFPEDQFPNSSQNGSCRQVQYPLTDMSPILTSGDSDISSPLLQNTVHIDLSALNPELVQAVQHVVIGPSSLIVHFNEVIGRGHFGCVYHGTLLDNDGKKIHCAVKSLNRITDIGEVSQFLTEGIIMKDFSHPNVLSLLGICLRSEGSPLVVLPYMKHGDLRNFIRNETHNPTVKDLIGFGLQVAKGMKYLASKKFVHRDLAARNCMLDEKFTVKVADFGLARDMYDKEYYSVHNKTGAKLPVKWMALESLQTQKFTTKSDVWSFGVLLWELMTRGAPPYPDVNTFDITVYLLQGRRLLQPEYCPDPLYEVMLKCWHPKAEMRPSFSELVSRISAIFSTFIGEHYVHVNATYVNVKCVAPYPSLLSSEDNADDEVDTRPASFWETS

[9] = biological target: Tyrosine-protein kinase FRK (Homo sapiens) (UniProt P42685); assay: Inhibition of PTK5 (unknown origin) at 1 uM relative to control
[10] = biological target: Serine/threonine-protein kinase Sgk2 (Homo sapiens) (UniProt Q9HBY8); assay: Inhibition of SGK2 (unknown origin) at 1 uM relative to control
[11] = biological target: Proto-oncogene tyrosine-protein kinase ROS (Homo sapiens) (UniProt P08922); assay: Inhibition of Ros (unknown origin) at 1 uM relative to control
[12] = biological target: Tyrosine-protein kinase receptor UFO (Homo sapiens) (UniProt P30530); assay: Inhibition of Axl (unknown origin) at 1 uM relative to control
[13] = Cmax in CD-1 mouse at 1 mg/kg, iv measured upto 8 hrs by LC-MS analysis; assay type: ADME, organism-based; conditions: in vivo
[14] = AUC (0 to 24 hrs) in CD-1 mouse at 5 mg/kg, po measured upto 24 hrs by LC-MS analysis; assay type: ADME, organism-based; conditions: in vivo
[15] = biological target: Dual specificity tyrosine-phosphorylation-regulated kinase 2 (Homo sapiens) (UniProt Q92630); assay: Inhibition of DYRK2 (unknown origin) at 1 uM relative to control
[16] = biological target: Serine/threonine-protein kinase Chk2 (Homo sapiens) (UniProt O96017); assay: Inhibition of CHK2 (unknown origin) at 1 uM relative to control
[17] = biological target: Rhodopsin kinase GRK7 (Homo sapiens) (UniProt Q8WTQ7); assay: Inhibition of GRK7 (unknown origin) at 1 uM relative to control
[18] = biological target: Tyrosine-protein kinase ABL1 (Homo sapiens, UniProt P00519); assay: Inhibition of ABL (unknown origin)
Sequence of Tyrosine-protein kinase ABL1 (P00519 whole entry): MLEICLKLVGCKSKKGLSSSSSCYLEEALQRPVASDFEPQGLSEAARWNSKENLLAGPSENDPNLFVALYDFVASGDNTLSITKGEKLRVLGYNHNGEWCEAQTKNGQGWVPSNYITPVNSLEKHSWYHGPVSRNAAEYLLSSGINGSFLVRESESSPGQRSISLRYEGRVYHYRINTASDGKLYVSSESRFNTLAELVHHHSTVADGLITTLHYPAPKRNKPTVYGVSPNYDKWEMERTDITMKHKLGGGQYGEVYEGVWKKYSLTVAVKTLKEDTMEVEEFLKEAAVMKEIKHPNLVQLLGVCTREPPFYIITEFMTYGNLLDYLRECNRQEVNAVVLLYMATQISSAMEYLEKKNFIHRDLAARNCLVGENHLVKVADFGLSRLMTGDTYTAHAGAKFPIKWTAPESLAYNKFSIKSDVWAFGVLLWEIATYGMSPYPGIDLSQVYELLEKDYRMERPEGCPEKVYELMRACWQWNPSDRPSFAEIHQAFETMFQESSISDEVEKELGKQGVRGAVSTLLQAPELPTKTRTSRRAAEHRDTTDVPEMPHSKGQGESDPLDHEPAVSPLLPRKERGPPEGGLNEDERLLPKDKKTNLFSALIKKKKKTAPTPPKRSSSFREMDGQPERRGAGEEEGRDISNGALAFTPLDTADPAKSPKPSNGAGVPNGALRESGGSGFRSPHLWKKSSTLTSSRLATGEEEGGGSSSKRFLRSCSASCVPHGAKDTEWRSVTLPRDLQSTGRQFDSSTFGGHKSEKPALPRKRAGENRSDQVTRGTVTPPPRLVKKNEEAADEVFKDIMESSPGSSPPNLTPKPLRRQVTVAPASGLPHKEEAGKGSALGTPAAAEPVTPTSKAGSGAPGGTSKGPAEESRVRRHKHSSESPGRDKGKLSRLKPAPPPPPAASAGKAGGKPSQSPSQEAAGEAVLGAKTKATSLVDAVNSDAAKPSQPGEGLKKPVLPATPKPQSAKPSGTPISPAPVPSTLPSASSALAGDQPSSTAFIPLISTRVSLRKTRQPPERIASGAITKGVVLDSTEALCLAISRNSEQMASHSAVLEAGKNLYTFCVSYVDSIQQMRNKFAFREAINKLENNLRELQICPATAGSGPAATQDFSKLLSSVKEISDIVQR

[19] = biological target: Vascular endothelial growth factor receptor 3 (Homo sapiens, UniProt P35916); assay: Inhibition of Flt4 (unknown origin)
[20] = Half life in CD-1 mouse at 5 mg/kg, po measured upto 24 hrs by LC-MS analysis; assay type: ADME, organism-based; conditions: in vivo
Homo sapiens [21] = species: Homo sapiens; assay: Inhibition of PDGFR (unknown origin) at 1 uM relative to control
Misshapen-like kinase 1 = Misshapen-like kinase 1 (Homo sapiens, UniProt Q8N4C8); assay: Inhibition of MINK (unknown origin)
[22] = biological target: Serine/threonine-protein kinase WNK2 (Homo sapiens) (UniProt Q9Y3S1); assay: Inhibition of WNK2 (unknown origin) at 1 uM relative to control
[23] = biological target: Serine/threonine-protein kinase mTOR (Homo sapiens) (UniProt P42345); assay: Inhibition of mTOR (unknown origin) at 1 uM relative to control
[24] = biological target: Serine/threonine-protein kinase 24 (Homo sapiens) (UniProt Q9Y6E0); assay: Inhibition of MST3 (unknown origin) at 1 uM relative to control
Sequence of Serine/threonine-protein kinase 24 (Homo sapiens) (Q9Y6E0 whole entry, looked up): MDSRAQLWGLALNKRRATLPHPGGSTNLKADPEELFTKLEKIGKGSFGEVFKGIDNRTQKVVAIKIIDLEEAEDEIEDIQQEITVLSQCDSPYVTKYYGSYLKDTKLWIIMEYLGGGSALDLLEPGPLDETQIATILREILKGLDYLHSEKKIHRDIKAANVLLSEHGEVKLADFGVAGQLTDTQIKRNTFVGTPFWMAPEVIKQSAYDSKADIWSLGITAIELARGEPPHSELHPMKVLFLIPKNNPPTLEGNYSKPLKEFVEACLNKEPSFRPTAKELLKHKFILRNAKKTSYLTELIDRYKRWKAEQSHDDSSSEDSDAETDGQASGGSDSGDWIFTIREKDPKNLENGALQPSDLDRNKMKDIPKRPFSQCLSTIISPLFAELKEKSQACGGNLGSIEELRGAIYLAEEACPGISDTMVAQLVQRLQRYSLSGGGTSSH

[25] = biological target: Insulin receptor-related protein (Homo sapiens) (UniProt P14616); assay: Inhibition of IRR (unknown origin) at 1 uM relative to control
[26] = AUC (0 to 24 hrs) in Sprague-Dawley rat at 1 mg/kg, iv measured upto 8 hrs by LC-MS analysis; assay type: ADME, organism-based; conditions: in vivo
Mus musculus [27] = assay: Antiarthritic activity against collagen-induced arthritis DBA/1J mouse model assessed as cartilage degradation by measuring lesion score in hind paw at 50 mg/kg, po administered twice daily for 14 days by histological analysis; assay type: functional, organism-based; conditions: time 14.0 day
[28] = biological target: Interleukin-1 receptor-associated kinase 4 (Homo sapiens, UniProt Q9NWZ3); assay: Inhibition of IRAK4 (unknown origin)
Mus musculus [29] = assay: Antiarthritic activity against collagen-induced arthritis DBA/1J mouse model assessed as reduction in MX2 level in whole blood at 50 mg/kg, po measured for 2 weeks by luminex analysis; assay type: functional, organism-based
[30] = biological target: Mitogen-activated protein kinase kinase kinase 7 (Homo sapiens, UniProt O43318); assay: Inhibition of TAK1 (unknown origin)
[31] = biological target: Serine/threonine-protein kinase MARK2 (Homo sapiens) (UniProt Q7KZI7); assay: Inhibition of PAR-1B (unknown origin) at 1 uM relative to control
[32] = biological target: SRSF protein kinase 2 (Homo sapiens) (UniProt P78362); assay: Inhibition of SRPK2 (unknown origin) at 1 uM relative to control
[33] = biological target: Serine/threonine-protein kinase TAO1 (Homo sapiens) (UniProt Q7L7X3); assay: Inhibition of TAO1 (unknown origin) at 1 uM relative to control
[34] = biological target: Ribosomal protein S6 kinase alpha-4 (Homo sapiens) (UniProt O75676); assay: Inhibition of MSK2 (unknown origin) at 1 uM relative to control
[35] = biological target: Tyrosine-protein kinase Mer (Homo sapiens) (UniProt Q12866); assay: Inhibition of Mer (unknown origin) at 1 uM relative to control
[36] = biological target: Tyrosine-protein kinase Fgr (Homo sapiens) (UniProt P09769); assay: Inhibition of Fgr (unknown origin) at 1 uM relative to control
Sequence of Tyrosine-protein kinase Fgr (Homo sapiens) (P09769 2-529 limits assumed): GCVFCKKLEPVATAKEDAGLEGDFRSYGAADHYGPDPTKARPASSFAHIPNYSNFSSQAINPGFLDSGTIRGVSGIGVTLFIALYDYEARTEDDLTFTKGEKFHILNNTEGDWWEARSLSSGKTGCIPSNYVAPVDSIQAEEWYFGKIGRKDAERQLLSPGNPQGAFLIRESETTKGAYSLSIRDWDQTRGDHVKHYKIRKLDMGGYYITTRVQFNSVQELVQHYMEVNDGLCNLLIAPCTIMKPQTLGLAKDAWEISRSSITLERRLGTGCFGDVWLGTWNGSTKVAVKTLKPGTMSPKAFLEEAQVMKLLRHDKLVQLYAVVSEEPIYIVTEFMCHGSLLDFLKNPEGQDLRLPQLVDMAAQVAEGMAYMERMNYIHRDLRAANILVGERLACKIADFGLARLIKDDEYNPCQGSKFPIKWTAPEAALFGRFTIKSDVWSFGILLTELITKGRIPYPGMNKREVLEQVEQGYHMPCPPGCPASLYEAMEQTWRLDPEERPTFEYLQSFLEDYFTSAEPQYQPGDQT

[37] = biological target: Tyrosine-protein kinase Lck (Homo sapiens, UniProt P06239); assay: Inhibition of LCK (unknown origin)
Sequence of Tyrosine-protein kinase Lck (P06239 whole entry): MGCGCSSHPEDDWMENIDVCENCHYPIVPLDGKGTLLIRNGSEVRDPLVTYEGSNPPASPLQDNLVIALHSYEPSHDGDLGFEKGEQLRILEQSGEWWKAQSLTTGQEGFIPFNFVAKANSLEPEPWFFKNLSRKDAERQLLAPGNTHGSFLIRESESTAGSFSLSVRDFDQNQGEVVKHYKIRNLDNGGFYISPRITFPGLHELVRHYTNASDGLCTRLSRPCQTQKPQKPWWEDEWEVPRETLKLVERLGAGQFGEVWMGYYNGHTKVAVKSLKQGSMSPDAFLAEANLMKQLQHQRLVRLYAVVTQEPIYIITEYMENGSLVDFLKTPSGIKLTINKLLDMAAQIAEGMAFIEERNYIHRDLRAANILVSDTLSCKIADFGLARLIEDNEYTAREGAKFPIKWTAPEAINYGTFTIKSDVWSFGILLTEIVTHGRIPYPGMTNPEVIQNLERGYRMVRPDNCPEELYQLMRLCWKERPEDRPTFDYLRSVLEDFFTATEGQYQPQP

[38] = biological target: Proto-oncogene tyrosine-protein kinase Src (Homo sapiens) (UniProt P12931); assay: Inhibition of SRC (unknown origin) at 1 uM relative to control
[39] = biological target: MAP kinase-activated protein kinase 2 (Homo sapiens) (UniProt P49137); assay: Inhibition of MAPK2 (unknown origin) at 1 uM relative to control
[40] = biological target: Death-associated protein kinase 3 (Homo sapiens) (UniProt O43293); assay: Inhibition of ZIPK (unknown origin) at 1 uM relative to control

inhibition [1]: 0%
inhibition [2]: 0%
inhibition (Homo sapiens [3]): -7%
inhibition [4]: -10%
inhibition [5]: -6%
inhibition [6]: -10%
Cmax [7]: 920 ng/mL
IC50 (BaF3; read-out: IC50): 4.55 µM
IC50 (BaF3; read-out: pIC50 (converted)): 4.57 µM
inhibition [8]: -3%
inhibition [9]: -6%
inhibition [10]: -4%
inhibition [11]: -9%
inhibition [12]: -5%
Cmax [13]: 637 ng/mL
AUC [14]: 1890 ng·h/mL
inhibition [15]: -1%
inhibition [16]: 6%
inhibition [17]: -8%
IC50 [18]: 2.3 µM
IC50 [19]: 0.274 µM
half-life [20]: 1.7 h
inhibition (Homo sapiens [21]): 2%
IC50 (Misshapen-like kinase 1): > 10 µM
inhibition [22]: -1%
inhibition [23]: -7%
inhibition [24]: 0%
inhibition [25]: -5%
AUC [26]: 739 ng·h/mL
IC50 [28]: > 10 µM
IC50 [30]: > 10 µM
inhibition [31]: -7%
inhibition [32]: -10%
inhibition [33]: -4%
inhibition [34]: 7%
inhibition [35]: 44%
inhibition [36]: 5%
IC50 [37]: > 10 µM
inhibition [38]: -10%
inhibition [39]: 0%
SMILES: O=C(Nc1nc2cccc(-c3ccc(CN4CCS(=O)(=O)CC4)cc3)n2n1)C1CC1 [FILGOTINIB]
Activity (Mus musculus [27]): Active
Activity (Mus musculus [29]): inactive
inhibition [40]: 3%
